Counter-ions that a name gives are not always drawn.
What was measured:
Acute Toxicity in Mice = details: mouse, in vivo; oral, six weeks old male ICR mice, suspended in 0.5% methylcellulose; Litchfield & Wilcoxon
Protocol: (3) Acute Toxicity in Mice
Six weeks old and male ICR mice weighing 27 to 29 g were used. The compound was suspended in 0.5% methylcellulose solution and administered orally to mice. The LD50 values of the compounds were calculated by the method of Litchfield & Wilcoxon (Journal of Pharmacol. & Exp. Therap., 96, 99-113, 1949) and summarized in Table 3.

coronary artery = test: Coronary Vasodilating Effect in Anesthetized Dogs (direct intracoronary administration); assay type: in vivo; details: 1 μg directly into coronary artery; for Overall increase in coronary blood flow at 1 μg: area under the percent increase in coronary blood flow
Protocol: (1) Coronary Vasodilating Effect in Anesthetized Dogs
In open-chest dogs anesthetized with 30 mg/kg i.v. of pentobarbital sodium, arterial blood from the carotid artery was led to circumflex branch of the left coronary artery by a extracorporeal loop. A servocontrolled pure (model 1215D, Harvard Apparatus) was incorporated in the circuit to maintain a constant perfusion pressure of 120 mmHg by means of a pump controller (SCS-22, Data Graph Co., Tokuya Tukada et al., Folia Pharmacol. Japon, 74, 59p, 1978). An electromagnetic flow probe of extracorporeal type (MF-25, Nihon Koden) was also inserted in the circuit to record coronary blood flow. A dose of 1 μg of the compound was administered directly into the coronary artery and then coronary blood flow was monitored until the blood flow returned to the pretreatment value. And then, the area under the percent increase in coronary blood flow after intracoronary injection of 1 μg of the compound was calculated and used as an index of the overall increase in coronary blood flow.

[1] = U.S. Pat. No. 4,220,649; U. K. Patent No. 2,014,134; cited from earlier work
[2] = Hypotensive Effect in Anesthetized Rats; assay type: in vivo; details: for ED (30 mmHg): Rattus norvegicus, iv, urethane-anesthetized rats, dose required to lower mean blood pressure by 30 mmHg
Protocol: (2) Hypotensive Effect in Anesthetized Rats
Blood pressure was measured in urethane-anesthetized rats. The compound was intravenously administered in an increasing dose manner at an interval of 20 minutes. The doses of the compounds required to lower mean blood pressure by 30 mmHg (ED 30 mmHg) was calculated from the dose-response curves and summarized in Table 2.

Row | SMILES | LD50 (Acute Toxicity in Mice) | Duration of the action (coronary artery) | Overall increase in coronary blood flow at 1 μg (coronary artery) | duration of the vasodilating and hypotensive effect [1] | vasodilating activity and hypotensive activity [1] | ED (30 mmHg) [2] | hypotensive activity, potency ratio to diastereoisomer B hydrochloride ([2]; anesthetized rats, i.v.)
1 | COC(=O)C1=C(C)NC(C)=C(C(=O)O[C@H]2CCN(Cc3ccccc3)C2)C1c1cccc([N+](=O)[O-])c1 (single isomer, unassigned) [Diastereoisomer A (d form) hydrochloride] | 190 mg/kg | 120 min | 4559 ± 894 %, min. |  |  |  | 
2 | COC(=O)C1=C(C)NC(C)=C(C(=O)OC2CCN(Cc3ccccc3)C2)C1c1cccc([N+](=O)[O-])c1 (stereo not drawn) [YM-09730, 2,6-dimethyl-4-(3-nitropheny)-1,4-dihydropyridine-3,5-dicarboxylic acid 3-(1-benzylpyrrolidin-3-yl)ester 5-methyl ester] |  |  |  | prolonged effect | has a vasodilating activity and a hypotensive activity |  | 
3 | COC(=O)C1=C(C)NC(C)=C(C(=O)OC2CCN(Cc3ccccc3)C2)C1c1cccc([N+](=O)[O-])c1 (racemic) [Equivalent mixture of the hydrochlorides of diastereoisomers] |  | 10 min | 129 ± 47 %, min. |  |  |  | 
4 | COC(=O)C1=C(C)NC(C)=C(C(=O)OC2CCN(Cc3ccccc3)C2)C1c1cccc([N+](=O)[O-])c1 (racemic) [Diastereoisomer B (dl form) hydrochloride] |  | 5 min | 120 ± 28 %, min. |  |  | 0.14 mg/kg | 
5 | COC(=O)C1=C(C)NC(C)=C(C(=O)OC2CCN(Cc3ccccc3)C2)C1c1cccc([N+](=O)[O-])c1 (single isomer, unassigned) [Diastereoisomer A (dl form) hydrochloride, 2,6-dimethyl-4-(3-nitro-phenyl)-1,4-dihydropyridine-3,5-dicarboxylic acid 3-(1-benzylpyrrolidin-3-yl)ester 5-methyl ester] | 295 mg/kg | 60 min | 1816 ± 377 %, min. |  |  | 0.002 mg/kg | about 70 times
